The values below come from US10758534B2 (Vertex Pharmaceuticals Incorporated, priority 2014, dated 2020).

The EC30 is the concentration at which the effect reaches the 30% level.

The assay addresses T1, F508del (Homo sapiens, UniProt P13569, DEL508-508).
T1 construct: expressed in transfected cells
Kind of assay: Protocol 2: FRET membrane potential optical assay (VIPR), identification of correction compounds. The format is cell-based. Summed up: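 FRET read-out (CC2-DMPE donor, DiSBAC2(3) voltage-sensitive acceptor) of membrane depolarization on VIPR II. Corrector candidates incubated 16 hrs at 37° C. with NIH3T3 cells expressing F508del; temperature correction at 27° C. as positive control; stimulation by 10 μM forskolin, 20 μM genistein, chloride-free gluconate bath.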

Setting [1] is: Table 3, compounds of Table 1 as modulators of CFTR activity, protocol not stated.
[2] abbreviates: F508del CFTR modulator activity, compounds of Table 1, read-out: EC30.

Where two headings read alike, the source gives them in different places.

T1 sequence (P13569 with tags, fused parts or gaps DEL508-508): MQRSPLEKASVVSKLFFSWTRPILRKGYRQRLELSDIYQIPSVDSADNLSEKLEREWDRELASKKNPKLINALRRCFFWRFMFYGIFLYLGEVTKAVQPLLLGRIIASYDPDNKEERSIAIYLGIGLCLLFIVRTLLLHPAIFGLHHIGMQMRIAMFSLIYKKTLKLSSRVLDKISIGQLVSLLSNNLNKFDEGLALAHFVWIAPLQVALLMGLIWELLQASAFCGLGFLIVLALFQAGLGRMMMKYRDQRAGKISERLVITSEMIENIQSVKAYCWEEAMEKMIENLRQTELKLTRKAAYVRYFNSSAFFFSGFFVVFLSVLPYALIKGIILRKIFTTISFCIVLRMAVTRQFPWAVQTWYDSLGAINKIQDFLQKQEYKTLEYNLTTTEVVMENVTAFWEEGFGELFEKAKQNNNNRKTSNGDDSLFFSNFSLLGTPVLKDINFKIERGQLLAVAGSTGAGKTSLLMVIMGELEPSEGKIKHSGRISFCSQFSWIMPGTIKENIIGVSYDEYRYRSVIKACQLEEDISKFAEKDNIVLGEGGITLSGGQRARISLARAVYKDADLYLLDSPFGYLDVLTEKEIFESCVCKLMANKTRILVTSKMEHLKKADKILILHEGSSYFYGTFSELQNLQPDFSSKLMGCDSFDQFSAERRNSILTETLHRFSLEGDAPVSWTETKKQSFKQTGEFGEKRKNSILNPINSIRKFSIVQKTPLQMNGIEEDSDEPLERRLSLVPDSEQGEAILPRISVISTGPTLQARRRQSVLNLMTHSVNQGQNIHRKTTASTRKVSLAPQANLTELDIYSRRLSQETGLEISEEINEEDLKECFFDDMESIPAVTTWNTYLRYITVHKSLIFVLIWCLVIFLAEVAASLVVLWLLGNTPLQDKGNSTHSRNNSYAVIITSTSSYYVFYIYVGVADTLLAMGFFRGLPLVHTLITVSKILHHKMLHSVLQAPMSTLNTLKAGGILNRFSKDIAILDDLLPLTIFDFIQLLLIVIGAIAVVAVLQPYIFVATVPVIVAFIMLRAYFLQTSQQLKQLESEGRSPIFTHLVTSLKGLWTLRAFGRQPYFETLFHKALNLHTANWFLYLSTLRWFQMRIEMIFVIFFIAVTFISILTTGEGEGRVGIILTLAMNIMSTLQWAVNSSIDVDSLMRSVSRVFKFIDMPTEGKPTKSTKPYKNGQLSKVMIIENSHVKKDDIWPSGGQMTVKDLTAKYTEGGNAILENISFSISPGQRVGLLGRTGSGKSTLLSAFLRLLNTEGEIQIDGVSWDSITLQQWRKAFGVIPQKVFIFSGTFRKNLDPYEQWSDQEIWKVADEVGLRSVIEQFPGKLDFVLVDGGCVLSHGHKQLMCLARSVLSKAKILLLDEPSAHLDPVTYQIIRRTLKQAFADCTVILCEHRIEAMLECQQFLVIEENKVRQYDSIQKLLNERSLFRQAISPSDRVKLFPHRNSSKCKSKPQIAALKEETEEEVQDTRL

Take `Cc1cc(C)c(Oc2nc(C(C)(C)C)ccc2C(=O)NS(=O)(=O)c2ccccn2)c(C)c1` [Compound 222, 6-tert-butyl-N-(2-pyridylsulfonyl)-2-(2,4,6-trimethylphenoxy)pyridine-3-carboxamide]: the EC30 result under setting [1] is “+++ (“+++” means <3 uM)”.

In the case of `C[C@@H]1CN(c2nc(-c3cccc(F)c3F)ccc2C(=O)NS(=O)(=O)c2ccc[nH]c2=O)C(C)(C)C1` [Compound 2162, 6-(2,3-difluorophenyl)-N-[(2-oxo-1H-pyridin-3-yl)sulfonyl]-2-[(4S)-2,2,4-trimethylpyrrolidin-1-yl]pyridine-3-carboxamide], under setting [2], the EC30 was less than 3000 nM.

With `Cc1cc(C)c(Cn2nc(C(C)(C)C)cc2C(=O)C(C)S(=O)(=O)c2ccccc2)c(C)c1` (racemic) [Compound 139, 2-(benzenesulfonyl)-1-[5-tert-butyl-2-[(2,4,6-trimethylphenyl)methyl]pyrazol-3-yl]propan-1-one], under setting [1], the EC30 entry is reported as “+++ (“+++” means <3 uM)”.

For `CC1CN(c2ncccc2C(=O)NS(=O)(=O)c2cccc(OCC3CC3)n2)C(C)(C)C1` (centres unmarked) [Compound 2342, N—[[6-(cyclopropylmethoxy)-2-pyridyl]sulfonyl]-2-(2,2,4-trimethylpyrrolidin-1-yl)pyridine-3-carboxamide], the EC30 under setting [2] is less than 3000 nM.

In the case of `CC(C)Oc1ccc(-c2ccc(C(=O)NS(=O)(=O)c3ccc[nH]c3=O)c(N3[C@H](C)CC[C@@H]3C)n2)cn1` [Compound 770, 2-[(2S,5R)-2,5-dimethylpyrrolidin-1-yl]-6-(6-isopropoxy-3-pyridyl)-N-[(2-oxo-1H-pyridin-3-yl)sulfonyl]pyridine-3-carboxamide], the EC30 entry under setting [1] is “++ (“++” means between 3 uM and 10 uM)”.

As for `Cc1cc(C)c(Oc2nc(-c3cccc(OCC(C)C)c3)ccc2C(=O)NS(=O)(=O)c2cccc(N)n2)c(C)c1` [Compound 8, N-[(6-amino-2-pyridyl)sulfonyl]-6-(3-isobutoxyphenyl)-2-(2,4,6-trimethylphenoxy)pyridine-3-carboxamide], the EC30 result under setting [1] is “+++ (“+++” means <3 uM)”.

Consider `Cc1cc(C)c(Oc2nc(C(C)(C)C)ccc2C(=O)NS(=O)(=O)c2cccc(N)c2)c(C)c1` [Compound 294, N-(3-aminophenyl)sulfonyl-6-tert-butyl-2-(2,4,6-trimethylphenoxy)pyridine-3-carboxamide], for which, under setting [1], the EC30 entry is reported as “+++ (“+++” means <3 uM)”.

For the molecule `C[C@@H]1CN(c2nc(-c3ccccc3C(F)(F)F)ccc2C(=O)NS(=O)(=O)c2cccnc2N)C(C)(C)C1` [Compound 2040, N-[(2-amino-3-pyridyl)sulfonyl]-6-[2-(trifluoromethyl)phenyl]-2-[(4S)-2,2,4-trimethylpyrrolidin-1-yl]pyridine-3-carboxamide], the EC30 under setting [2] is less than 3000 nM.

With `CC1CN(c2ncccc2C(=O)NS(=O)(=O)c2cccc(Oc3ccccc3C(C)C)n2)C(C)(C)C1` (centres unmarked) [Compound 2486, N—[[6-(2-isopropylphenoxy)-2-pyridyl]sulfonyl]-2-(2,2,4-trimethylpyrrolidin-1-yl)pyridine-3-carboxamide], the EC30 under setting [2] is less than 3000 nM.

Take `Cc1ccc2cccc(Oc3cccc(S(=O)(=O)NC(=O)c4cccnc4N4CC(C)CC4(C)C)n3)c2n1` (centres unmarked) [Compound 2643, N—[[6-[(2-methyl-8-quinolyl)oxy]-2-pyridyl]sulfonyl]-2-(2,2,4-trimethylpyrrolidin-1-yl)pyridine-3-carboxamide]: the EC30 under setting [2] is less than 3000 nM.

`Cc1cc(C)c(Oc2nc(-c3cc(F)ccc3F)ccc2C(=O)NS(=O)(=O)c2ccc[nH]c2=O)c(C)c1` [Compound 545, 6-(2,5-difluorophenyl)-N-[(2-oxo-1H-pyridin-3-yl)sulfonyl]-2-(2,4,6-trimethylphenoxy)pyridine-3-carboxamide]: under setting [1], the EC30 result is “++ (“++” means between 3 uM and 10 uM)”.

On to `Cc1cc(C)c(Oc2nc(C3CCC(C)CC3)ccc2C(=O)NS(=O)(=O)c2ccc[nH]c2=O)c(C)c1` (centres unmarked) [Compound 743, 6-(4-methylcyclohexyl)-N-[(2-oxo-1H-pyridin-3-yl)sulfonyl]-2-(2,4,6-trimethylphenoxy)pyridine-3-carboxamide], for which the EC30 result under setting [1] is reported as “+++ (“+++” means <3 uM)”.

As for `CC(C)(C)c1ccc(-c2nc(C(C)(C)C)ccc2C(=O)NS(=O)(=O)c2cccc(N)c2)cc1` [Compound 252, N-(3-aminophenyl)sulfonyl-6-tert-butyl-2-(4-tert-butylphenyl)pyridine-3-carboxamide], the EC30 entry under setting [1] is listed as “+++ (“+++” means <3 uM)”.

On to `CC1CN(c2ncccc2C(=O)NS(=O)(=O)c2cccc(NCCc3cccs3)n2)C(C)(C)C1` (centres unmarked) [Compound 2146, N—[[6-[2-(2-thienyl)ethylamino]-2-pyridyl]sulfonyl]-2-(2,2,4-trimethylpyrrolidin-1-yl)pyridine-3-carboxamide], for which the EC30 under setting [2] was less than 3000 nM.

Turning to `C[C@@H]1CN(c2nc(-c3ccc4c(c3)OCCO4)ccc2C(=O)NS(=O)(=O)c2ccc[nH]c2=O)C(C)(C)C1` [Compound 2516, 6-(2,3-dihydro-1,4-benzodioxin-6-yl)-N-[(2-oxo-1H-pyridin-3-yl)sulfonyl]-2-[(4S)-2,2,4-trimethylpyrrolidin-1-yl]pyridine-3-carboxamide], the EC30 under setting [2] lay in the range of 3000 to 10000 nM.

For the molecule `Cc1cc(-c2ccc(C(=O)NS(=O)(=O)c3ccc[nH]c3=O)c(N3C[C@@H](C)CC3(C)C)n2)cc(C)c1O` [Compound 2556, 6-(4-hydroxy-3,5-dimethyl-phenyl)-N-[(2-oxo-1H-pyridin-3-yl)sulfonyl]-2-[(4S)-2,2,4-trimethylpyrrolidin-1-yl]pyridine-3-carboxamide], under setting [2], the EC30 was in the range of 3000 to 10000 nM.

With `CC(C)c1ccc(-c2ccc(C(=O)NS(=O)(=O)c3cccnc3N)c(N3C[C@@H](C)CC3(C)C)n2)cc1` [Compound 2368, N-[(2-amino-3-pyridyl)sulfonyl]-6-(4-isopropylphenyl)-2-[(4S)-2,2,4-trimethylpyrrolidin-1-yl]pyridine-3-carboxamide], under setting [2], the EC30 was less than 3000 nM.

On to `CC1CN(c2ncccc2C(=O)NS(=O)(=O)c2cccc(OCc3cnn(-c4ccccc4)c3)n2)C(C)(C)C1` (centres unmarked) [Compound 2111, N—[[6-[(1-phenylpyrazol-4-yl)methoxy]-2-pyridyl]sulfonyl]-2-(2,2,4-trimethylpyrrolidin-1-yl)pyridine-3-carboxamide], for which the EC30 under setting [2] is less than 3000 nM.

With `Cc1cc(-c2cnc(N3CC(C)CC3(C)C)c(C(=O)NS(=O)(=O)c3cccc(N)n3)c2)cc(C(C)(C)C)c1` (centres unmarked) [Compound 2322, N-[(6-amino-2-pyridyl)sulfonyl]-5-(3-tert-butyl-5-methyl-phenyl)-2-(2,2,4-trimethylpyrrolidin-1-yl)pyridine-3-carboxamide], under setting [2], the EC30 was less than 3000 nM.

Turning to `CC(C)(C)c1cc(C(=O)NS(=O)(=O)c2cccc(N)c2)n(Cc2c(Cl)cc(Cl)cc2Cl)n1` [Compound 303, N-(3-aminophenyl)sulfonyl-5-tert-butyl-2-[(2,4,6-trichlorophenyl)methyl]pyrazole-3-carboxamide], under setting [1], the EC30 result is listed as “+++ (“+++” means <3 uM)”.

Turning to `C[C@@H]1CN(c2nc(-c3ccc(F)cc3F)ccc2C(=O)NS(=O)(=O)c2cccc(N)n2)C(C)(C)C1` [Compound 2372, N-[(6-amino-2-pyridyl)sulfonyl]-6-(2,4-difluorophenyl)-2-[(4S)-2,2,4-trimethylpyrrolidin-1-yl]pyridine-3-carboxamide], the EC30 under setting [2] was less than 3000 nM.

For the molecule `C[C@@H]1CN(c2nc(-c3cccc(F)c3O)ccc2C(=O)NS(=O)(=O)c2cccnc2N)C(C)(C)C1` [Compound 2446, N-[(2-amino-3-pyridyl)sulfonyl]-6-(3-fluoro-2-hydroxy-phenyl)-2-[(4S)-2,2,4-trimethylpyrrolidin-1-yl]pyridine-3-carboxamide], the EC30 under setting [2] is less than 3000 nM.

In the case of `CC1CN(c2ncc(-c3cc(F)cc(F)c3)cc2C(=O)NS(=O)(=O)c2cccc(N)n2)C(C)(C)C1` (centres unmarked) [Compound 2259, N-[(6-amino-2-pyridyl)sulfonyl]-5-(3,5-difluorophenyl)-2-(2,2,4-trimethylpyrrolidin-1-yl)pyridine-3-carboxamide], the EC30 under setting [2] is less than 3000 nM.

`CC(C)(C)c1ccc(C(=O)NS(=O)(=O)c2cccc(N)n2)c(N2CCC(C3CC3)C2(C)C)n1` (single isomer, unassigned) [Compound 2022, N-[(6-amino-2-pyridyl)sulfonyl]-6-tert-butyl-2-(3-cyclopropyl-2,2-dimethyl-pyrrolidin-1-yl)pyridine-3-carboxamide]: under setting [2], the EC30 was less than 3000 nM.

Regarding `CC(C)COc1cc(F)cc(-c2ccc(C(=O)NS(=O)(=O)c3ccn[nH]3)c(N3CCCC4(COC4)C3)n2)c1` [Compound 519, 6-(3-fluoro-5-isobutoxy-phenyl)-2-(2-oxa-8-azaspiro[3.5]nonan-8-yl)-N-(1H-pyrazol-5-ylsulfonyl)pyridine-3-carboxamide], under setting [1], the EC30 entry is “++ (“++” means between 3 uM and 10 uM)”.

Take `Cc1cc(C)c(Oc2nc3ccccc3cc2C(=O)NS(=O)(=O)c2cccc(N)c2)c(C)c1` [Compound 260, N-(3-aminophenyl)sulfonyl-2-(2,4,6-trimethylphenoxy)quinoline-3-carboxamide]: under setting [1], the concentration for an effect of 30% (EC30) entry was “++ (“++” means between 3 uM and 10 uM)”.

`COc1ccc(C)c(-c2ccc(C(=O)NS(=O)(=O)c3cccc(N)n3)c(N3CC(C)CC3(C)C)n2)c1` (centres unmarked) [Compound 470, N-[(6-amino-2-pyridyl)sulfonyl]-6-(5-methoxy-2-methyl-phenyl)-2-(2,2,4-trimethylpyrrolidin-1-yl)pyridine-3-carboxamide]: the EC30 result under setting [1] is given as “+++ (“+++” means <3 uM)”.

`Cc1ccc(O)c(-c2ccc(C(=O)NS(=O)(=O)c3ccc[nH]c3=O)c(N3C[C@@H](C)CC3(C)C)n2)c1` [Compound 2174, 6-(2-hydroxy-5-methyl-phenyl)-N-[(2-oxo-1H-pyridin-3-yl)sulfonyl]-2-[(4S)-2,2,4-trimethylpyrrolidin-1-yl]pyridine-3-carboxamide]: the EC30 under setting [2] was in the range of 3000 to 10000 nM.

As for `COc1cc2cc(C(=O)NS(=O)(=O)c3ccccc3)n(Cc3c(C)cc(C)cc3C)c2cc1OC` [Compound 198, N-(benzenesulfonyl)-5,6-dimethoxy-1-[(2,4,6-trimethylphenyl)methyl]indole-2-carboxamide], under setting [1], the EC30 result is “+++ (“+++” means <3 uM)”.
